According to patent publication US20240172756A1, “ORGANOANTIMONY(V) C[…] AND METHODS OF PRODUCTION AND USE THEREOF” (priority 2021, published 2024):

Columns and labels:
Type in all cases: cell-based
Cryptococcus neoformans [1] = assay: Antifungal disk diffusion assay, C. neoformans; settings: solid compound on paper disk
Method: (§1) To determine the antifungal properties of the two groups of Sb(V) cyanoximaes, Cryptococcus neoformans and Candida albicans, both of which are deadly human pathogens, were tested.
(§2) First, solid state powder compounds were deposited on paper disks and tested against two fungi: Cryptococcus neoformans and Candia albicans. Each experiment was conducted in triplicate with each compound at each concentration of deposited solid compound. The control was a blank paper (100% cotton disk).
(§3) Disk diffusion assays: No inhibition of Cryptococcus neoformans or Candida albicans for the following organoantimony(V) cyanoximate compounds at any concentration (S, ×2, ×4): H(ACO), H(ECO), H(MCO).

Candida albicans [2] = assay: Antifungal disk diffusion assay, C. albicans; settings: solid compound on paper disk
Method: as §1, §2, §3

[3] = test system: bacterial and fungal pathogens; assay: Antimicrobial activity overall (disk diffusion and MIC tests, strain not specified); settings: for antimicrobial effect in MIC assays: organism not given
Method: (§4) To determine the antimicrobial potential of the two generations (G1—based on SbPh4-core, and G2—based on SbMe3-core) of newly synthesized Sb(V) cyanoximates, several representative compounds were first selected and their antimicrobial properties tested by using disk diffusion assays, The minimal inhibitory concentrations (MIC) of selected compounds were also determined in liquid cultures. Three bacterial and two fungal pathogens were used as target microorganisms. Bacterial pathogens included Gram-negative Pseudomonas aeruginosa and Gram-positive Staphylococcus aureus, representing the ESKAPE group of human pathogens known for their high virulence and antibiotic resistance.
(§5) Two different types of antimicrobial studies were performed: 1) paper disk studies during growth on solid media; and 2) MIC determination during growth in liquid media. […] Antifungal disk assays concluded that Sb(Ph)4 (ECO) was effective against Cryptococcus neoformans and Candida albicans. […] For MIC assays, Sb(Ph)4 (MCO), the Sb(V) cyanoximate, was tested, along with the free cyanoximes H(MCO), H(ECO), and Na[H(ACO)2].

Pseudomonas aeruginosa = assay: MIC in liquid culture, P. aeruginosa; settings: for MIC, P. aeruginosa: Table 1; for antimicrobial effect: strain PAO1, paper disk and MIC studies
Method: as §4
(§6) MIC of the 3rd generation compounds, as well as complete MIC measurements for the 2nd generation Sb(V) compounds, are determined. A dilution assay in a 96-well-plate format, the gold standard for measuring MICS recommended by the Clinical Laboratory Standards Institute (CLSI), is utilized. Prior to plate inoculation, bacterial cultures of P. aeruginosa PAO1, S. aureus NRS70, E. foecium CC17, and E. coli S17 are grown in Mueller Hinton Broth (MHB) to middle log phase as determined by the individual growth curves and diluted to obtain absorbance at 600 nm of 0.1. These normalized cultures are diluted 1:100 using MHB and inoculated into the fresh medium with serially diluted Sb(V) compounds in 96-well plates. The plates are incubated for 24 h at 37° C. For fungal pathogens, cultures of Cryptococcus neoformans strain H99 and Candida albicans strain SC5314 are grown to stationary phase in YPD medium for 18 h at 30° C. Following incubation, fungal cells are centrifuged, washed three times with PBS, and then counted with trypan blue exclusion. Each compound is screened using a microdilution assay with 0.5×10^3 fungal cells in RPMI-MOPS medium at 35° C. for 48 h. Following incubations for bacterial or fungal pathogens, the OD600 is measured using a Biotek Synergy HT microtiter plate reader ([…].). The MIC is defined as the lowest concentration that inhibits growth. An aliquot from the clear wells from the MIC assay is plated on agar to determine minimum bactericidal concentration (MBC) or minimum fungicidal concentration (MFC). Each experiment is based on at least three biological replicates and repeated for consistency. The MIC and MBC for each compound is compared to those obtained for clinically applied antibiotics/antifungals. For bacterial pathogens, the corresponding antibiotics, such as tobramycin (P. aeruginosa), trimethoprim (S. aureus), gentamicin (E. coli) and ampicillin (E. foecium), are used. For fungal pathogens, the data is compared to the antifungal drugs Amphotericin B and Caspofungin for C. neoformans and C. albicans, respectively, by using the CLSI method.
as §5
(§7) MIC assays: The MIC assay protocol utilized for determination of the effects of various organoantimony(V) cyanoximate compounds in various bacteria is shown in FIG. 16. Each solubilized in DMSO at 5 mg/ml, starting concentration is 100 μg/ml. Error bars represent standard error of the mean (if none, the values were identical in each experiment). Untested compounds have no bar. Bars reaching 100 μg/ml were not considered to have antifungal activity.

Escherichia coli = assay: MIC in liquid culture, E. coli; settings: for MIC, E. coli: Table 1; for antimicrobial effect: strain S17, paper disk and MIC studies
Method: as §4, §6, §5, §7

Staphylococcus aureus = assay: MIC in liquid culture, S. aureus; settings: for MIC, S. aureus: Table 1; for antimicrobial effect: Methicillin-resistant strain NRS70, paper disk and MIC studies
Method: as §4, §6, §5, §7

Cryptococcus neoformans [4] = assay: MIC assay, C. neoformans; settings: for MIC, C. neoformans: Table 1
Method: as §1, §6
(§8) Second, the compounds were dissolved in DMSO to […], and their minimal inhibitory concentration (MIC) was determined against C. neoformans and C. albicans. Starting concentration used was 100 μg/ml, and then diluted 1:2.
as §7

Candida albicans [5] = assay: MIC assay, C. albicans; settings: for MIC, C. albicans: Table 1
Method: as §1, §6, §8, §7

[6] = test system: Staphylococcus aureus MRSA; assay: Broth dilution assay, S. aureus MRSA; settings: multi-drug resistant strain, FIG. 20
Description: As shown in FIGS. 20-21, compounds containing Sb display higher bactericidal activity against Gram positive Staphylococcus aureus (FIG. 20) than Gram negative E. coli (FIG. 21). […] In addition, 25-40% reduction of growth was also observed for Sb(Ph4)Br, Sb(Ph4)ECO, Sb(Ph4)ACO, and Sb(Ph4)TCO against Gram negative E. coli (FIG. 21).

[7] = in DMSO, starting concentration 100 μg/ml, active if MIC below 100 μg/ml

N#CC(=NO)C(=O)N1CCOCC1 [H(MCO), reference compound]
antifungal activity / zone of inhibition in disk assay (Cryptococcus neoformans [1]): No inhibition | antifungal activity / zone of inhibition in disk assay (Candida albicans [2]): No inhibition | antimicrobial activity [3]: most antimicrobially active | antimicrobial effect in MIC assays [3]: no antimicrobial effect

CCOC(=O)C(C#N)=N[O][Sb]([CH3])([CH3])([CH3])[O]N=C(C#N)C(=O)OCC [SbMe3(ECO)2]
MIC, P. aeruginosa (Pseudomonas aeruginosa): >200 µg/mL | MIC, E. coli (Escherichia coli): >200 µg/mL | MIC, S. aureus (Staphylococcus aureus): >200 µg/mL

[CH3][Sb]([CH3])([CH3])([O]N=C(C#N)c1c(Cl)cccc1Cl)[O]N=C(C#N)c1c(Cl)cccc1Cl [SbMe3(2,6-ClPhCO)2]
MIC, P. aeruginosa (Pseudomonas aeruginosa): >200 µg/mL | MIC, E. coli (Escherichia coli): 50 µg/mL | MIC, C. neoformans (Cryptococcus neoformans [4]): >100 µg/mL | MIC, C. albicans (Candida albicans [5]): >100 µg/mL | antimicrobial activity [3]: pronounced antimicrobial activity

N#CC(=NO)C(N)=O.N#CC(=N[O-])C(N)=O.[Na+] [Na[H(ACO)2]]
antimicrobial effect in MIC assays [3]: no antimicrobial effect

N#CC(=N[O][Sb]([c]1ccccc1)([c]1ccccc1)([c]1ccccc1)[c]1ccccc1)C(N)=S [SbPh4TCO]
MIC, P. aeruginosa (Pseudomonas aeruginosa): >200 µg/mL | antimicrobial effect (Pseudomonas aeruginosa): essentially no antimicrobial activity | MIC, E. coli (Escherichia coli): >200 µg/mL | antimicrobial effect (Escherichia coli): essentially no antimicrobial activity | antimicrobial effect (Staphylococcus aureus): significant effects | MIC, S. aureus (Staphylococcus aureus): 100 µg/mL | MIC, C. neoformans (Cryptococcus neoformans [4]): 25 µg/mL | MIC, C. albicans (Candida albicans [5]): 100 µg/mL | antifungal activity / zone of inhibition in disk assay (Cryptococcus neoformans [1]): followed in antifungal activity against both strains | antifungal activity / zone of inhibition in disk assay (Candida albicans [2]): followed in antifungal activity against both strains | bactericidal activity [6]: significant bactericidal activity

[CH3][Sb]([CH3])([CH3])([Br])[Br] [SbMe3Br2, triemethylantimony(V) dibromide, reference compound]
MIC, P. aeruginosa (Pseudomonas aeruginosa): 50 µg/mL | MIC, E. coli (Escherichia coli): 150 µg/mL | MIC, S. aureus (Staphylococcus aureus): 100 µg/mL | MIC, C. neoformans (Cryptococcus neoformans [4]): >100 µg/mL | MIC, C. albicans (Candida albicans [5]): >100 µg/mL

N#CC(=N[O][Sb]([c]1ccccc1)([c]1ccccc1)([c]1ccccc1)[c]1ccccc1)C(=O)N1CCOCC1 [SbPh4MCO]
MIC, P. aeruginosa (Pseudomonas aeruginosa): 200 µg/mL | MIC, E. coli (Escherichia coli): >200 µg/mL | MIC, S. aureus (Staphylococcus aureus): 100 µg/mL | concentration with fungicidal activity (killed C. neoformans) (Cryptococcus neoformans [4]; Example 6): 100 µg/mL | MIC with C. neoformans (Cryptococcus neoformans [4]; Example 6, three independent experiments): 22.5 µg/mL | MIC, C. neoformans (Cryptococcus neoformans [4]): 19.8 µg/mL | antifungal activity in MIC assay (Cryptococcus neoformans [4]; [7]): exhibited antifungal activity | MIC, C. albicans (Candida albicans [5]): 32.1 µg/mL | antifungal activity in MIC assay (Candida albicans [5]; [7]): exhibited antifungal activity

[CH3][Sb]([CH3])([CH3])([O]N=C(C#N)c1ccc(Cl)cc1Cl)[O]N=C(C#N)c1ccc(Cl)cc1Cl [SbMe3(2,4-ClPhCO)2]
MIC, P. aeruginosa (Pseudomonas aeruginosa): >200 µg/mL | MIC, E. coli (Escherichia coli): >200 µg/mL | MIC, C. neoformans (Cryptococcus neoformans [4]): >100 µg/mL | MIC, C. albicans (Candida albicans [5]): >100 µg/mL

CCOC(=O)/C(C#N)=N/O [H(ECO), reference compound]
antifungal activity / zone of inhibition in disk assay (Cryptococcus neoformans [1]): No inhibition | antifungal activity / zone of inhibition in disk assay (Candida albicans [2]): No inhibition | antimicrobial effect in MIC assays [3]: no antimicrobial effect

[CH3][Sb]([CH3])([CH3])([O]N=C(C#N)C(N)=S)[O]N=C(C#N)C(N)=S [SbMe3(TCO)2]
MIC, P. aeruginosa (Pseudomonas aeruginosa): >200 µg/mL | MIC, E. coli (Escherichia coli): >200 µg/mL

CN(C)C(=S)C(C#N)=N[O][Sb]([CH3])([CH3])([CH3])[O]N=C(C#N)C(=S)N(C)C [SbMe3(TDCO)2]
MIC, P. aeruginosa (Pseudomonas aeruginosa): >200 µg/mL | MIC, E. coli (Escherichia coli): >200 µg/mL

N#C/C(=N\O)C(N)=O [H(ACO), reference compound]
antifungal activity / zone of inhibition in disk assay (Cryptococcus neoformans [1]): No inhibition | antifungal activity / zone of inhibition in disk assay (Candida albicans [2]): No inhibition | antimicrobial activity [3]: most antimicrobially active

[CH3][Sb]([CH3])([CH3])([O]N=C(C#N)C(=O)N1CCOCC1)[O]N=C(C#N)C(=O)N1CCOCC1 [SbMe3(MCO)2]
MIC, P. aeruginosa (Pseudomonas aeruginosa): 50 µg/mL | MIC, E. coli (Escherichia coli): >200 µg/mL | MIC, S. aureus (Staphylococcus aureus): >200 µg/mL | antimicrobial activity [3]: pronounced antimicrobial activity

CN(C)C(=S)C(C#N)=N[O][Sb]([c]1ccccc1)([c]1ccccc1)([c]1ccccc1)[c]1ccccc1 [SbPh4TDCO]
MIC, P. aeruginosa (Pseudomonas aeruginosa): >200 µg/mL | antimicrobial effect (Pseudomonas aeruginosa): essentially no antimicrobial activity | MIC, E. coli (Escherichia coli): >200 µg/mL | antimicrobial effect (Escherichia coli): essentially no antimicrobial activity | antimicrobial effect (Staphylococcus aureus): significant effects | MIC, S. aureus (Staphylococcus aureus): 100 µg/mL | MIC, C. neoformans (Cryptococcus neoformans [4]): 33.3 µg/mL | MIC, C. albicans (Candida albicans [5]): 100 µg/mL | antifungal activity / zone of inhibition in disk assay (Cryptococcus neoformans [1]): effective | antifungal activity / zone of inhibition in disk assay (Candida albicans [2]): only effective at inhibition of Cryptococcus neoformans

[CH3][Sb]([CH3])([CH3])([O]N=C(C#N)c1ccccc1Cl)[O]N=C(C#N)c1ccccc1Cl [SbMe3(2-ClPhCO)2]
MIC, P. aeruginosa (Pseudomonas aeruginosa): >200 µg/mL | MIC, E. coli (Escherichia coli): >200 µg/mL | MIC, S. aureus (Staphylococcus aureus): >200 µg/mL | MIC, C. neoformans (Cryptococcus neoformans [4]): >100 µg/mL | MIC, C. albicans (Candida albicans [5]): >100 µg/mL

[Br][Sb]([c]1ccccc1)([c]1ccccc1)([c]1ccccc1)[c]1ccccc1 [SbPh4Br, tetraphenylantimony(V) bromide, reference compound]
bactericidal activity [6]: significant bactericidal activity
